Measured values taken from US9315847B2, “Automated transient image cytometry” (priority 2009, dated 2016).

Test system: NRVMs
Assay: Toxicity of the nuclear label to NRVMs during dye loading
Assay type: cell-based, rat
Details: 200 ng/ml in loading solution, 25 minutes
Procedure: Sensitivity to intracellular calcium kinetics is a desirable goal for automated calcium transient image cytometry because it is desirable to distinguish healthy contractile ESCMs from background non-contractile stem cells. […] The cells were maintained 48 to 72 hrs prior to scanning. On the day of scanning, the cells were incubated with a 3 μM solution of the acetyoxymethylester form of an intracellular calcium indicator (either Fluo-4 AM or Fluo-3 AM) in the base media for 25 minutes. The plasma membrane permeable to the acetoxymethylester forms of Fluo-3 and Fluo-4, which are modified intracellularly by esterases to an impermeable form. The loading solution was also supplemented with 200 ng/ml Hoechst 33342 to label DNA within the nuclei. This concentration of Hoechst provides adequate label of the nuclei and was non-toxic under these conditions. Thus, the labeling procedure introduced a green-fluorescence channel fluorescent calcium indicator into the cytoplasm of the NRVMs (Fluo-4) and a blue-fluorescence channel nuclear stain (Hoechst). The nuclear channel was used for autofocus at each well; additionally, images obtained of the nuclei provided information regarding cellular position that was helpful in assigning boundaries between cells in the segmentation procedure applied to the green-channel images. […]

## CCOc1ccc(-c2nc3ccc(-c4nc5ccc(N6CCN(C)CC6)cc5[nH]4)cc3[nH]2)cc1 [Hoechst 33342]
  toxicity of the nuclear label under loading conditions: non-toxic
